The text below walks through data of patent US20260232709A1, “COMPOSITION COMPRISING MELOSIDE FOR ALLEVIATING HAIR LOSS AND IMPROVING HAIR GROWTH” (MORECHEM CO., LTD., priority 2024, published 2026).

Data set [1] concerns human dermal papilla cells (HDPC). The data set can be described thus: Cytotoxicity / growth-proliferation of dermal papilla cells (CCK-8). The conditions noted are these: 10, 30, 50, 100 ppm, 1 day, CCK-8, 450 nm, FIG. 1. Type of data set: cell-based. As to the method:
Human hair dermal papilla cells (HDPC), used in the test examples described below, were cultured in Dulbecco's Modified Eagle Medium (DMEM, WELGENE) supplemented with 10% Fetal Bovine Serum (FBS, WELGENE) and 1% antibiotics (Penicillin-Streptomycin, WELGENE) as the culture medium, in an incubator at 37° C., 5% CO2, and humid conditions.
Specifically, after treating human dermal papilla cells (HDPC) or human outer root sheath cells (ORS) with Meloside A or Meloside L at concentrations of 10, 30, 50, and 100 ppm for 1 day, CCK-8 (Cell Counting Kit-8, Dojindo, EU) reagent was added to the treated HDPC according to the manufacturer's protocol. Absorbance was then measured at a wavelength of 450 nm using a microplate reader (BioTeK, USA), and the extent of HDPC growth/proliferation by Meloside treatment was compared and confirmed against the negative control group (treated with DMEM instead of Meloside A or L).

The target of a further data set is T1, androgen receptor (Homo sapiens, UniProt P10275).
T1 construct: host or cells: dermal papilla cells
T1 sequence (P10275 1-920): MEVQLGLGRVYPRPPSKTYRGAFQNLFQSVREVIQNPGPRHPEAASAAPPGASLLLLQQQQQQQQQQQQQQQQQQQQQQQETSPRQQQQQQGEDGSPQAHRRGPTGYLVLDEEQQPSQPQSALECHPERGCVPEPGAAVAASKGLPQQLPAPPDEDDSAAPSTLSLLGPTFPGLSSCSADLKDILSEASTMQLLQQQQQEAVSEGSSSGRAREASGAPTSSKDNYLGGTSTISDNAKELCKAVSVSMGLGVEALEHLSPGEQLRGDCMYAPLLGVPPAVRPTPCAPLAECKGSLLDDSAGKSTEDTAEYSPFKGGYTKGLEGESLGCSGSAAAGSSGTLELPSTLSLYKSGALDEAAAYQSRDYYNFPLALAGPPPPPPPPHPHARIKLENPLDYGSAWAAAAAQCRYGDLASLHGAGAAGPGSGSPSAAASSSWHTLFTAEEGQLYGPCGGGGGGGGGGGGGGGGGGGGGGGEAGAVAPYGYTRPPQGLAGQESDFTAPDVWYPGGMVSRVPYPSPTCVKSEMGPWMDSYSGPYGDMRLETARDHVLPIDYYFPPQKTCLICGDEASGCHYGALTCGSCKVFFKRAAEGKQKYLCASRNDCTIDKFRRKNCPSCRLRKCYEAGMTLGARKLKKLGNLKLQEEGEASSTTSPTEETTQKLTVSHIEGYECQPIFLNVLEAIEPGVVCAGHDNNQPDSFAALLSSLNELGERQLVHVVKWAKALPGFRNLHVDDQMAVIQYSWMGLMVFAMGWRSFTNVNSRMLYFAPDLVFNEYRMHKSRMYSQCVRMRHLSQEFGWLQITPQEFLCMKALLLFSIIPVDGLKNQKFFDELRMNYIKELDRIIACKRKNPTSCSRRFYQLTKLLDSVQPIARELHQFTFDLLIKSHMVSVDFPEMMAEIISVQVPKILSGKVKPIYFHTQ
The data set can be described thus: Androgen receptor nuclear translocation in dermal papilla cells (EGFP-AR, fluorescence microscopy). It is filed as cell-based. The conditions noted are these: DHT co-treated with 100 ppm, 24 hours, FIGS. 5 and 6. The procedure: To confirm the involvement of androgen receptors in hair loss-related gene transcription, recombinant plasmid EGFP-AR (Addgene) was used, and the extent of androgen receptor nuclear translocation in dermal papilla cells was measured using a cellular injection method.
For the untreated group, only DHT was treated, and for the negative control group, neither DHT nor the sample was treated. In the experimental group, DHT and Meloside A or L at 100 ppm were co-treated, and after 24 hours, measurements were taken using a fluorescence microscope at Ex 485 nm and Em 535 nm. The results observed with the fluorescence microscope are shown in FIG. 5, and the number of cells with translocated androgen receptors in the treated groups, based on the untreated group, is shown in FIG. 6.

The next data set concerns DKK1. The data set can be described thus: DKK1 expression in DHT-treated HDPC supernatant (ELISA). It is filed as cell-based, human. Particulars: HDPC treated with DHT, 30 or 100 ppm, 1 day, FIG. 7. The procedure:
HDPC were treated with DHT to increase DKK1 expression, and then treated with Meloside A or L at concentrations of 30 or 100 ppm, respectively, for 1 day to obtain the cell supernatant. For comparison, HDPC treated with Dihydrotestosterone (DHT) but without Meloside A and L were used as the untreated group, and HDPC treated with 100 μM Minoxidil were used as the positive control group.
The increase or decrease in DKK1 expression level in the obtained cell supernatant was confirmed through an Enzyme-Linked Immunosorbent Assay (ELISA) method, and the results are shown in FIG. 7.

Data set [2] has as its system Vascular Endothelial Growth Factor (VEGF). The data set can be described thus: VEGF expression in HDPC supernatant (ELISA). The conditions noted are these: 30 or 100 ppm, 1 day, FIG. 8. Type of data set: cell-based, human. The procedure:
HDPC were treated with Meloside A or L at concentrations of 30 or 100 ppm, respectively, for 1 day to obtain the cell supernatant. For comparison, HDPC that were not treated with either Meloside A or L were used as the negative control group, and HDPC treated with 100 μM Minoxidil were used as the positive control group.
The increase or decrease in VEGF expression level in the obtained cell supernatant was confirmed through an Enzyme-Linked Immunosorbent Assay (ELISA) method, and the results are shown in FIG. 8.

For data set [3], the system named is reactive oxygen species (ROS). Kind of data set: DHT-induced intracellular reactive oxygen species in HDPC (DCF-DA fluorescence). It is filed as cell-based, human. Particulars: 30 or 100 ppm with 100 μg/mL DHT, 24 hours, FIGS. 12 and 13. The procedure: The intracellular reactive oxygen species inhibition effect was evaluated using human hair dermal papilla cells (HDPC). Measurement was performed by utilizing the principle that the non-fluorescent substance 2′,7′-dichlorodihydrofluorescein diacetate (DCF-DA) reacts with intracellularly generated free radicals and oxidizes into the fluorescent substance 2′,7′-dichlorofluorescein (DCF).
Human dermal papilla cells were seeded into 12-well plates at 5.5×10^4 cells/well and cultured for 24 hours in a 37° C., 5% CO2 incubator. Subsequently, samples prepared at various concentrations were treated into each well and cultured for 23 hours in a 37° C., 5% CO2 incubator. For the treated groups, Meloside A or L at 30 or 100 ppm were treated along with DHT. For control groups, HDPC treated with 100 μg/mL DHT but without Meloside A and L, and untreated HDPC (neither Meloside A or L nor DHT) were used. […] After removing DCF-DA and washing twice with PBS, images were taken every 10 minutes for 30 minutes using a fluorescence microscope at Ex 485 nm and Em 535 nm. The level of intracellular reactive oxygen species generation was measured by quantifying fluorescence intensity in […] using Image J, thereby confirming the ROS reduction efficacy of Meloside.

Molecules are shown by their SMILES. Entries after “also recorded” stand apart in the source; their conditions may differ.

Consider `O=c1cc(-c2ccc(O)c(O)c2)oc2cc(O)c([C@@H]3O[C@H](CO)[C@@H](O)[C@H](O)[C@H]3O[C@@H]3O[C@H](CO)[C@@H](O)[C@H](O)[C@H]3O)c(O)c12` [Meloside L, isoorientin 2″-O-glucoside], for which the “cell growth/proliferation (cytotoxicity) of HDPC vs negative control” value in data set [1] is “comparable levels of cell growth/proliferation to the negative control group”. For the same molecule, the “DHT-induced translocation of androgen receptors (number of cells with translocated AR)” value on androgen receptor is reported as “inhibited”. Also, the DKK1 expression level result in the data set with DKK1 is “no effect was observed”. Besides, the VEGF expression level entry in data set [2] is reported as “increase in VEGF expression”. Also, the “reactive oxygen species (ROS) generation” value in data set [3] is “reduction in reactive oxygen species (ROS) generation”.

In the case of `O=c1cc(-c2ccc(O)cc2)oc2cc(O)c([C@@H]3O[C@H](CO)[C@@H](O)[C@H](O)[C@H]3O[C@@H]3O[C@H](CO)[C@@H](O)[C@H](O)[C@H]3O)c(O)c12` [Meloside A, isovitexin 2″-O-glucoside], in data set [1], the “cell growth/proliferation (cytotoxicity) of HDPC vs negative control” value was “comparable levels of cell growth/proliferation to the negative control group”. Moreover, at androgen receptor, the “DHT-induced translocation of androgen receptors (number of cells with translocated AR)” value is “inhibited; also recorded: superior to that of Meloside L treatment”. The DKK1 expression level entry in the data set with DKK1 was “concentration-dependent decrease in DKK1 expression”. For the same molecule, in data set [2], the VEGF expression level result is reported as “increase in VEGF expression; also recorded: superior to that of Meloside L”. The “reactive oxygen species (ROS) generation” value in data set [3] is on record as “reduction in reactive oxygen species (ROS) generation”.
